Common to all, as to experiment: SRB assay, IMT combined with inhibitor
Assay type in all cases: cell-based
On the technique in general: Sulforhodamine B stains cellular protein and so reports cell mass.

The test system of one assay is A375. Conditions: A375 (skin); concentration series of the labelled inhibitor + fixed concentration of IMT (3S)-1-[(2R)-2-[4-(2-chloro-4-fluoro-phenyl)-2-oxo-chromen-7-yl]oxypropanoyl]piperidine-3-carboxylic acid (Table 3: 40 nM, 120 h); negative=synergistic, positive=antagonistic. The method, then: (§1) Solforhodamine B assay is carried out as described in Voigt W. (2005) Sulforhodamine B Assay and Chemosensitivity. (Methods in Molecular Medicine™, vol 110. Humana Press. https://doi.org/10.1385/1-59259-869-2:039).
(§2) The determination of changes in cellular biomass was based on the Solforhodamine B assay format, carried out as described in Voigt W. (2005) Sulforhodamine B Assay and Chemosensitivity. (Methods in Molecular Medicine™, vol 110. Humana Press. https://doi.org/10.1385/1-59259-869-2:039).
(§3) All in vitro cell culture experiments were carried out under near physiological glucose concentrations (5 mM) in at least two independent replicates.
(§4) First, 30 different cell lines from 14 different tissue types were tested in the SRB assay format. The cells were examined individually for changes in growth over a period of 120 hours with dilution series of both inhibitors. Untreated cells were used as a negative control group. Subsequently, a dilution series of the respective MAPK signalling pathway SOCs was treated in combination with a fixed concentration of 40 nM (3S)-1-[(2R)-2-[4-(2-chloro-4-fluoro-phenyl)-2-oxo-chromen-7-yl]oxypropanoyl]piperidine-3-carboxylic acid.

For another assay, the system named is CALU6. Conditions: CALU6 (lung); concentration series of the labelled inhibitor + fixed concentration of IMT (3S)-1-[(2R)-2-[4-(2-chloro-4-fluoro-phenyl)-2-oxo-chromen-7-yl]oxypropanoyl]piperidine-3-carboxylic acid (Table 3: 40 nM, 120 h); negative=synergistic, positive=antagonistic. The method, then:
as §1, §2, §3, §4

The subject of a further assay is DU145. Conditions: DU145 (prostate); concentration series of the labelled inhibitor + fixed concentration of IMT (3S)-1-[(2R)-2-[4-(2-chloro-4-fluoro-phenyl)-2-oxo-chromen-7-yl]oxypropanoyl]piperidine-3-carboxylic acid (Table 3: 40 nM, 120 h); negative=synergistic, positive=antagonistic. The method, then:
as §1, §2, §3, §4

The test system of another assay is HCT116. The conditions noted are these: HCT116 (colon); concentration series of the labelled inhibitor + fixed concentration of IMT (3S)-1-[(2R)-2-[4-(2-chloro-4-fluoro-phenyl)-2-oxo-chromen-7-yl]oxypropanoyl]piperidine-3-carboxylic acid (Table 3: 40 nM, 120 h); negative=synergistic, positive=antagonistic. The method, then: as §1, §2, §3, §4
The subject of a further assay is HELA. The conditions noted are these: HELA (cervix); concentration series of the labelled inhibitor + fixed concentration of IMT (3S)-1-[(2R)-2-[4-(2-chloro-4-fluoro-phenyl)-2-oxo-chromen-7-yl]oxypropanoyl]piperidine-3-carboxylic acid (Table 3: 40 nM, 120 h); negative=synergistic, positive=antagonistic. On the procedure: as §1, §2, §3, §4
Another assay concerns HEPG2. The conditions noted are these: HEPG2 (liver); concentration series of the labelled inhibitor + fixed concentration of IMT (3S)-1-[(2R)-2-[4-(2-chloro-4-fluoro-phenyl)-2-oxo-chromen-7-yl]oxypropanoyl]piperidine-3-carboxylic acid (Table 3: 40 nM, 120 h); negative=synergistic, positive=antagonistic. On the procedure: as §1, §2, §3, §4
A further assay relates to HT1080. The conditions noted are these: HT1080 (connective tissue); concentration series of the labelled inhibitor + fixed concentration of IMT (3S)-1-[(2R)-2-[4-(2-chloro-4-fluoro-phenyl)-2-oxo-chromen-7-yl]oxypropanoyl]piperidine-3-carboxylic acid (Table 3: 40 nM, 120 h); negative=synergistic, positive=antagonistic. The method, then:
as §1, §2, §3, §4

A further assay relates to JAR. Conditions: JAR (placenta); concentration series of the labelled inhibitor + fixed concentration of IMT (3S)-1-[(2R)-2-[4-(2-chloro-4-fluoro-phenyl)-2-oxo-chromen-7-yl]oxypropanoyl]piperidine-3-carboxylic acid (Table 3: 40 nM, 120 h); negative=synergistic, positive=antagonistic. The method, then: as §1, §2, §3, §4
A further assay has as its system KASUMI-1. The conditions noted are these: KASUMI-1 (hematological); concentration series of the labelled inhibitor + fixed concentration of IMT (3S)-1-[(2R)-2-[4-(2-chloro-4-fluoro-phenyl)-2-oxo-chromen-7-yl]oxypropanoyl]piperidine-3-carboxylic acid (Table 3: 40 nM, 120 h); negative=synergistic, positive=antagonistic. The method, then: as §1, §2, §3, §4
The next assay has as its system MV4-11. The conditions noted are these: MV4-11 (hematological); concentration series of the labelled inhibitor + fixed concentration of IMT (3S)-1-[(2R)-2-[4-(2-chloro-4-fluoro-phenyl)-2-oxo-chromen-7-yl]oxypropanoyl]piperidine-3-carboxylic acid (Table 3: 40 nM, 120 h); negative=synergistic, positive=antagonistic. The method, then:
as §1, §2, §3, §4

A further assay deals with NCIH460. Conditions: NCIH460 (lung); concentration series of the labelled inhibitor + fixed concentration of IMT (3S)-1-[(2R)-2-[4-(2-chloro-4-fluoro-phenyl)-2-oxo-chromen-7-yl]oxypropanoyl]piperidine-3-carboxylic acid (Table 3: 40 nM, 120 h); negative=synergistic, positive=antagonistic. The method, then:
as §1, §2, §3, §4

The subject of another assay is SKMEL5. The conditions noted are these: SKMEL5 (skin); concentration series of the labelled inhibitor + fixed concentration of IMT (3S)-1-[(2R)-2-[4-(2-chloro-4-fluoro-phenyl)-2-oxo-chromen-7-yl]oxypropanoyl]piperidine-3-carboxylic acid (Table 3: 40 nM, 120 h); negative=synergistic, positive=antagonistic. On the procedure: as §1, §2, §3, §4
For the next assay, the system named is U2OS. Conditions: U2OS (bone); concentration series of the labelled inhibitor + fixed concentration of IMT (3S)-1-[(2R)-2-[4-(2-chloro-4-fluoro-phenyl)-2-oxo-chromen-7-yl]oxypropanoyl]piperidine-3-carboxylic acid (Table 3: 40 nM, 120 h); negative=synergistic, positive=antagonistic. The method, then:
as §1, §2, §3, §4

Another assay relates to U87MG. The conditions noted are these: U87MG (brain); concentration series of the labelled inhibitor + fixed concentration of IMT (3S)-1-[(2R)-2-[4-(2-chloro-4-fluoro-phenyl)-2-oxo-chromen-7-yl]oxypropanoyl]piperidine-3-carboxylic acid (Table 3: 40 nM, 120 h); negative=synergistic, positive=antagonistic. On the procedure: as §1, §2, §3, §4
The next assay concerns MHHES1. Conditions: MHHES1 (bone); concentration series of the labelled inhibitor + fixed concentration of IMT (3S)-1-[(2R)-2-[4-(2-chloro-4-fluoro-phenyl)-2-oxo-chromen-7-yl]oxypropanoyl]piperidine-3-carboxylic acid (Table 3: 40 nM, 120 h); negative=synergistic, positive=antagonistic. The method, then:
as §1, §2, §3, §4

As to `COc1c(OCCCN2CCOCC2)ccc2c1N=C(NC(=O)c1cnc(N)nc1)N1CCN=C21` [BAY 80-6946, 2-Amino-N-{7-methoxy-8-[3-(4-morpholinyl)propoxy]-2,3-dihydroimidazo[1,2-c]quinazolin-5-yl}-5-pyrimidinecarboxamide], the “difference between the calculated combinatorial index (BLISS) and the observed combinatorial effect” value in the assay with A375 is −0.0033; with CALU6, 0.0374; in the assay on DU145 it was 0.0423; with HCT116, −0.0195; in the assay with HELA, −0.0260; with HEPG2, −0.0273. The “difference between the calculated combinatorial index (BLISS) and the observed combinatorial effect” value in the assay with HT1080 is given as −0.0627; in the assay with JAR, 0.0381; in the assay with KASUMI-1, 0.0015; with MV4-11 it was 0.0337; in the assay on NCIH460, −0.0473; in the assay on SKMEL5, −0.0994. Also, the “difference between the calculated combinatorial index (BLISS) and the observed combinatorial effect” value is 0.0017 in the assay on U2OS and 0.0243 with U87MG.

Consider `C[C@H](Nc1ncnc2nc[nH]c12)c1cc2cccc(Cl)c2c(=O)n1-c1ccccc1` [Duvelisib], for which the “difference between the calculated combinatorial index (BLISS) and the observed combinatorial effect” value in the assay on A375 was −0.0153; in the assay on CALU6 it was 0.0342; in the assay with DU145, 0.0362; in the assay on HCT116 it was −0.0213; in the assay with HELA it was −0.0666; in the assay on HEPG2, −0.0318. For the same compound, the “difference between the calculated combinatorial index (BLISS) and the observed combinatorial effect” value is listed as −0.0565 in the assay with HT1080; 0.0624 with JAR; −0.0237 in the assay on KASUMI-1; 0.0611 with MV4-11; −0.0651 in the assay on NCIH460; −0.1083 with SKMEL5. The results for the “difference between the calculated combinatorial index (BLISS) and the observed combinatorial effect” value in the assay on U2OS and with U87MG were −0.0126 and 0.0433, respectively.

In the case of `CS(=O)(=O)N1CCN(Cc2cc3nc(-c4cccc5[nH]ncc45)nc(N4CCOCC4)c3s2)CC1` [GDC-0941, 2-(1H-Indazol-4-yl)-6-[[4-(methylsulfonyl)-1-piperazinyl]methyl]-4-(4-morpholinyl)thieno[3,2-d]pyrimidine], the “difference between the calculated combinatorial index (BLISS) and the observed combinatorial effect” value in the assay with A375 was −0.0654; in the assay on CALU6, −0.0406; in the assay on DU145, 0.0436; with HCT116 it was −0.0464; in the assay on HELA, −0.0531; with HEPG2, −0.0006. Moreover, the “difference between the calculated combinatorial index (BLISS) and the observed combinatorial effect” value was 0.0172 in the assay on HT1080; 0.0136 in the assay on JAR; 0.0051 in the assay with KASUMI-1; 0.0272 with MV4-11; −0.0178 in the assay on NCIH460; −0.0915 with SKMEL5. Besides, the “difference between the calculated combinatorial index (BLISS) and the observed combinatorial effect” value in the assay with U2OS is 0.0451; in the assay with U87MG, 0.1078.

As for `O=C(c1cc(Cc2n[nH]c(=O)c3ccccc23)ccc1F)N1CCN(C(=O)C2CC2)CC1` [Olaparib], the “difference between the calculated combinatorial index (BLISS) and the observed combinatorial effect” value is −0.0650 in the assay with A375; 0.0400 in the assay with CALU6; 0.0557 in the assay with DU145; −0.0690 with HCT116; −0.0307 in the assay on HELA; −0.0439 in the assay on HEPG2. Further, the “difference between the calculated combinatorial index (BLISS) and the observed combinatorial effect” value in the assay on JAR is reported as 0.0294; in the assay with KASUMI-1, −0.0415; in the assay on MHHES1 it was 0.0269; with MV4-11, 0.0407; with NCIH460, −0.0377; with U2OS, −0.0034. Further, the “difference between the calculated combinatorial index (BLISS) and the observed combinatorial effect” value in the assay on U87MG was 0.0523.

Source of the values: patent publication US20240252454A1, “COMPOSITION COMPRISING AN INHIBITOR OF MITOCHONDRIAL TRANSCRIPTION” (LEAD DISCOVERY CENTER GMBH, priority 2021, published 2024).
